The source made the active and inactive calls. The rule behind the calls is not given here.
Tests used:
[1] = target: T1, Adenosine receptor A1 (Homo sapiens) (UniProt P30542); conditions: brain
T1 sequence (whole entry): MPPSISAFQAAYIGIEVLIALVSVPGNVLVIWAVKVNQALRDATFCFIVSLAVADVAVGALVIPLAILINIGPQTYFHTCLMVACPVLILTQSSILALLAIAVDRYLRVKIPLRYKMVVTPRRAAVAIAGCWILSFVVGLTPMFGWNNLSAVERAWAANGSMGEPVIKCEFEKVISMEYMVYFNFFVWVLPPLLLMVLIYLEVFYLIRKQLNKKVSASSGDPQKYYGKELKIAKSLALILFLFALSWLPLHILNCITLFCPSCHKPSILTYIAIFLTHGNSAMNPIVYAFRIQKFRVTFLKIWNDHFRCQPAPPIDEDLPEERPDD

[2] = target: T2, Adenosine A2 receptor (Homo sapiens) (UniProt P29275+P29274); conditions: brain
Adenosine receptor A1 = target: T3, Adenosine receptor A1 (Bos taurus, UniProt P28190)
T3 sequence (P28190 whole entry): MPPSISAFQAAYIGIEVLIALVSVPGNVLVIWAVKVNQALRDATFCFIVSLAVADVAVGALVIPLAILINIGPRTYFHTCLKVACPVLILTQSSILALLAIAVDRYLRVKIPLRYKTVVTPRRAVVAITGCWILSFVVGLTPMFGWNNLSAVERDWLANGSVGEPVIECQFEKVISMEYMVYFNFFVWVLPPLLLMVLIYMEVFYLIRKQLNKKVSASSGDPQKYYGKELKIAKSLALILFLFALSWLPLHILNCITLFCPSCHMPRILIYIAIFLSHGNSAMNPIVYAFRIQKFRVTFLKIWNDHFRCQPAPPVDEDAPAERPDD

Adenosine receptor A2a [3] = target: T4, Adenosine receptor A2a (Cavia porcellus, UniProt P46616); assay: biochemical
Description: (§1) Antagonist binding of N6-cyclohexyl-[3H]-adenosine to guinea pig brain

[4] = target: T5, Adenosine receptor (Homo sapiens) (UniProt P30542+P29275+P0DMS8+P29274)
Adenosine receptor [5] = target: T6, Adenosine receptor (Rattus norvegicus, UniProt P29276+P25099+P30543+P28647); type: functional
Adenosine receptor [6] = target: T6, Adenosine receptor; assay: Antagonist binding of rN6-cyclohexyl-[3H]adenosine to rat brain; type: functional
Adenosine receptor [7] = target: T6, Adenosine receptor
Description: Antagonist binding of L-N6-phenyl-isopropyl)-[3H]adenosine to rat fat

[8] = target: T5, Adenosine receptor (Homo sapiens); remark: listed apart in the source
[9] = target: T2, Adenosine A2 receptor (Homo sapiens); conditions: brain; remark: listed apart in the source
[10] = target: T1, Adenosine receptor A1 (Homo sapiens); assay: Affinity constant for inhibition of A1 receptor control of adenylate cyclase in adipocytes, heart and brain cells; Inactive; type: functional, cell-based
[11] = target: T2, Adenosine A2 receptor (Homo sapiens); assay: Affinity constant for A2 receptor control of adenylate cyclase in adipocytes, heart and brain cells; Inactive; type: functional, cell-based
Adenosine receptor A2a [12] = target: T4, Adenosine receptor A2a; assay: biochemical; remark: listed apart in the source
Description: as §1

T5 sequence (P0DMS8 whole entry, looked up, one chain of several): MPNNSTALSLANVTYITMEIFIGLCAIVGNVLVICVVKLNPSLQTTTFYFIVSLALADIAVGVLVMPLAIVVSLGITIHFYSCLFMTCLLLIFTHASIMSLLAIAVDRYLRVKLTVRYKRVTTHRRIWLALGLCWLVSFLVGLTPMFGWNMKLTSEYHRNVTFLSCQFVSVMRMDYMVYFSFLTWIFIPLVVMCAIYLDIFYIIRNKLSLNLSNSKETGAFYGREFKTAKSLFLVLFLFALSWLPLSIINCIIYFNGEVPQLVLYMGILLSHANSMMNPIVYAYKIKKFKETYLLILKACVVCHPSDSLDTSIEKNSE
T5 sequence (P29274 whole entry, looked up, one chain of several): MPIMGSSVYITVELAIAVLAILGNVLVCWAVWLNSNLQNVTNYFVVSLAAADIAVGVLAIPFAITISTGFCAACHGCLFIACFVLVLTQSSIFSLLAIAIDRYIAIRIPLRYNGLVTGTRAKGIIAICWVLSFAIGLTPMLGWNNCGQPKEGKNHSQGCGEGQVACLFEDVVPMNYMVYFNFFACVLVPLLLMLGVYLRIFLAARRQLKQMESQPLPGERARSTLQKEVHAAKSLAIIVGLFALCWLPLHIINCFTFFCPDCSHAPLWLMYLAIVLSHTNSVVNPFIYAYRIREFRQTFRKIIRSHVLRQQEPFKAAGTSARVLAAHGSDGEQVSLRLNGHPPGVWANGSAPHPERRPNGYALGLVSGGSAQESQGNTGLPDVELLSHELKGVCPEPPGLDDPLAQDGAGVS
T5 sequence (P29275 whole entry, looked up, one chain of several): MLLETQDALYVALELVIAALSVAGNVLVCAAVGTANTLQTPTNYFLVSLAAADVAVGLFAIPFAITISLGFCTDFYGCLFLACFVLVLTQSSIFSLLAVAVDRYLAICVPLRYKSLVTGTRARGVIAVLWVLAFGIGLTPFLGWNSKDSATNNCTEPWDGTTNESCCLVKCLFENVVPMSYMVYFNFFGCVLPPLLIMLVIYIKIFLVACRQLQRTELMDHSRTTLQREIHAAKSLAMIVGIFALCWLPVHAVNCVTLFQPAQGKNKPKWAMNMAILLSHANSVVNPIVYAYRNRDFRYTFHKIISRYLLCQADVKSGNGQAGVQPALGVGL
T4 sequence (P46616 whole entry): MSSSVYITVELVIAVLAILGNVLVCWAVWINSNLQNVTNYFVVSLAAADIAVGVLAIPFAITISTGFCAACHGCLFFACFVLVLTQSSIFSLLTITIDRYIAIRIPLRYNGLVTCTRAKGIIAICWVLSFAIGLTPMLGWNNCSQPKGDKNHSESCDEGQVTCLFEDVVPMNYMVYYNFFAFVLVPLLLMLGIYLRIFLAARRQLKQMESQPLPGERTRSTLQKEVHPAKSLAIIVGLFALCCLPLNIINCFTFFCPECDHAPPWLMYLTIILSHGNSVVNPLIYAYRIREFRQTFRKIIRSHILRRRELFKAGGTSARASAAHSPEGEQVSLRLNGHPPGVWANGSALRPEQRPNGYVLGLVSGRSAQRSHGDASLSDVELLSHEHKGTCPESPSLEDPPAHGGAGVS

| Compound | Affinity constant [1] [µM] | Affinity constant [2] [µM] | Ki (Adenosine receptor A1) [µM] | Ki (Adenosine receptor A2a [3]) [µM] | Affinity constant [4] | other results |
| --- | --- | --- | --- | --- | --- | --- |
| CNc1ncnc2c1ncn2[C@@H]1O[C@H](CO)[C@@H](O)[C@H]1O | 0.1 | 80 | – | – | – | – |
| CC(C)Cn1c(=O)n(C)c(=O)c2[nH]cnc21 [ISOBUTYLMETHYLXANTHINE] | – | – | 7 | 8 | – | – |
| CC(C)Cn1c(=O)n(C)c(=O)c2nc[nH]c21 [ISOBUTYLMETHYLXANTHINE] | 2 | 5 | – | – | inactive | Ki (Adenosine receptor [5]): 0.8 µM; Ki (Adenosine receptor [6]): 3 µM; Ki (Adenosine receptor [7]): 20 µM |
| C[C@@H](Cc1ccccc1)Nc1ncnc2c1ncn2[C@@H]1O[C@H](CO)[C@@H](O)[C@H]1O [(S)-PIA] | 0.2 | 100 | 0.008 | 0.13 | inactive | – |
| OC[C@H]1O[C@@H](n2cnc3c(NC4CCCCC4)ncnc32)[C@H](O)[C@@H]1O | 0.003 | 30 | 0.0025 | – | inactive | – |
| OC[C@H]1O[C@@H](n2cnc3c(NCc4ccccc4)ncnc32)[C@H](O)[C@@H]1O | 0.2 | 80 | – | – | inactive | – |
| Nc1ncnc2c1ncn2[C@@H]1O[C@H](C(=O)NC2CC2)[C@@H](O)[C@H]1O | – | – | – | 0.008 | – | – |
| Cn1c(=O)c2[nH]c(-c3ccccc3)nc2n(C)c1=O [8-PHENYL THEOPHYLLINE] | – | – | – | 0.4 | – | – |
| Nc1nc(Cl)nc2c1ncn2[C@@H]1O[C@H](CO)[C@@H](O)[C@H]1O | 0.01 | – | 0.025 | 0.008 | – | Affinity constant [8]: inactive; Affinity constant [9]: 5 µM |
| CCNC(=O)[C@H]1O[C@@H](n2cnc3c(N)ncnc32)[C@H](O)[C@@H]1O | 0.1 | – | – | – | – | – |
| C[C@@H]1O[C@H](n2cnc3c(N)ncnc32)C[C@H]1O | – | – | – | – | 2 µM | Affinity constant [10]: inactive; Affinity constant [11]: inactive |
| OC[C@H]1O[C@@H](n2cnc3c(Nc4ccccc4)ncnc32)[C@H](O)[C@@H]1O | 0.003 | 50 | – | – | inactive | – |
| C[C@H](Cc1ccccc1)Nc1ncnc2c1ncn2[C@@H]1O[C@H](CO)[C@@H](O)[C@H]1O [(R)-PIA] | 0.003 | 30 | 0.00025 | – | inactive | Ki (Adenosine receptor A2a [12]): 0.0033 µM |
| Cn1c(=O)c2c(ncn2C)n(C)c1=O [CAFFEINE] | 30 | 30 | 130 | – | inactive | – |
| CSC[C@H]1O[C@@H](n2cnc3c(N)ncnc32)[C@H](O)[C@@H]1O | – | 10 | – | – | – | – |
